Assay results reported in ChEMBL document CHEMBL4813990, “One-step modification to identify dual-inhibitors targeting both pancreatic triglyceride lipase and Niemann-Pick C1-like 1” (Eur J Med Chem, 2021).
Calls of active or inactive are those of the source. The rule behind the calls is not given here.

How the values were obtained:
Caco-2 [1] = experiment: Inhibition of PTL mRNA expression in human Caco-2 cells at 100 uM incubated for 24 hrs by qRT-PCR analysis; format: functional, cell-based
Caco-2 [2] = experiment: Inhibition of NPC1L1 expression in human Caco-2 cells at 0.1 to 100 uM incubated for 24 hrs by Western blot analysis; format: functional, cell-based; details: dose 0.1-100 µM
Caco-2 [3] = experiment: Inhibition of NPC1L1 mRNA expression in human Caco-2 cells at 100 uM incubated for 24 hrs by qRT-PCR analysis; format: functional, cell-based
[4] = target: T1, NPC1-like intracellular cholesterol transporter 1 (Homo sapiens) (UniProt Q9UHC9); experiment: Inhibition of NPC1L1 in human Caco-2 cells assessed as decrease in uptake of cholesterol-d6 at 50 uM by HPLC-MS analysis; format: cell-based
T1 sequence (whole entry): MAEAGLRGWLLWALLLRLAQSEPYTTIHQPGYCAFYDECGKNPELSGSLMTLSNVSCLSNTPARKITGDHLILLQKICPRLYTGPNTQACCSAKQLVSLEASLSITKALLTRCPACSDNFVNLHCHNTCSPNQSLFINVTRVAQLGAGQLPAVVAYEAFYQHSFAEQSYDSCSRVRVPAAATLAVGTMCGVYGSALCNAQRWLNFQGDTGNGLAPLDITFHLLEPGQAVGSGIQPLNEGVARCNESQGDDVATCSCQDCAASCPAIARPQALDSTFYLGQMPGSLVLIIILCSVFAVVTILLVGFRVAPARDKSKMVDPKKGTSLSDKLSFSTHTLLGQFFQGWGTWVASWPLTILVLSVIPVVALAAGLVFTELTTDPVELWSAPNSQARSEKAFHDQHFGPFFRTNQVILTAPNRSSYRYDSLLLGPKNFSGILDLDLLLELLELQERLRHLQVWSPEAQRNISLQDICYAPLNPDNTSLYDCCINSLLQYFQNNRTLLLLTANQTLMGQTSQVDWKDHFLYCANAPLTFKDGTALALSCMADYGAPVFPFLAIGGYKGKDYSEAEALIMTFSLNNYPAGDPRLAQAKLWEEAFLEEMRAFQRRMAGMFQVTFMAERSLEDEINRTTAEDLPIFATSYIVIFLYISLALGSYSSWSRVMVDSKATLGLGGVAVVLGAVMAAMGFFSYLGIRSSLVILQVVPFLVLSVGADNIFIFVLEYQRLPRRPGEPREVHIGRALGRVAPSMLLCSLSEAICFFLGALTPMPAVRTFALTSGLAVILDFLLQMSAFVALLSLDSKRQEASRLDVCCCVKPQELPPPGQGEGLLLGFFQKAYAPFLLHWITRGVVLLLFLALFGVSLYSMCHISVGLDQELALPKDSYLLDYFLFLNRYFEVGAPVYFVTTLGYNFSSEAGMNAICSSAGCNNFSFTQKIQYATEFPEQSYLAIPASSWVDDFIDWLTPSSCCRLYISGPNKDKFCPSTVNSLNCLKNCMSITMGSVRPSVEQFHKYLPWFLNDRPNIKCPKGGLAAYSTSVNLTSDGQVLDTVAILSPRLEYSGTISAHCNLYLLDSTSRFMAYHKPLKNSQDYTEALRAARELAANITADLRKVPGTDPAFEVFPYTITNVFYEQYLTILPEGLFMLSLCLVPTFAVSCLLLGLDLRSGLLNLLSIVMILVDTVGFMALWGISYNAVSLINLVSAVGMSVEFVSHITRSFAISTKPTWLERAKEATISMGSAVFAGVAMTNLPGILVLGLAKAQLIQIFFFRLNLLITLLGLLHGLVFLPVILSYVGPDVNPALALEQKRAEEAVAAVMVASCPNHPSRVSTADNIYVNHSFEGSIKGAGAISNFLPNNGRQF

Caco-2 [5] = experiment: Inhibition of PTL expression in human Caco-2 cells at 0.1 to 100 uM incubated for 24 hrs by Western blot analysis; format: functional, cell-based; details: dose 0.1-100 µM
[6] = target: T1, NPC1-like intracellular cholesterol transporter 1 (Homo sapiens); experiment: Non-competitive inhibition of NPC1L1 in human Caco-2 cells assessed as decrease in uptake of cholesterol at 50 uM by HPLC-MS based Lineweaver-Burk double reciprocal plot analysis; format: cell-based
[7] = target: T1, NPC1-like intracellular cholesterol transporter 1 (Homo sapiens); experiment: Binding affinity to NPC1L1 (unknown origin) at 6.25 to 100 uM by SPR analysis; details: dose 6.25-100 µM

| inhibition [4] | inhibition [6] | Activity [7] | SMILES | inhibition (Caco-2 [1]) | inhibition (Caco-2 [2]) | inhibition (Caco-2 [3]) | inhibition (Caco-2 [5]) |
| --- | --- | --- | --- | --- | --- | --- | --- |
| Active |  |  | O=C1[C@H](CC[C@H](O)c2ccc(F)cc2)[C@@H](c2ccc(O)cc2)N1c1ccc(F)cc1 | Active | inactive | inactive | Active |
| Active | Active | Active | CCCCCCCCCCC[C@@H](C[C@@H]1OC(=O)[C@H]1CCCCCC)OC(=O)c1ccc(O)cc1 | Active | inactive | inactive | Active |
|  |  | Active | CCCCCCCCCCC[C@@H](C[C@@H]1OC(=O)[C@H]1CCCCCC)OC(=O)c1cccc(O)c1 |  |  |  |  |
| Active |  | Active | CCCCCCCCCCC[C@@H](C[C@@H]1OC(=O)[C@H]1CCCCCC)OC(=O)[C@H](CC(C)C)NC=O |  | inactive |  | Active |
